These results are taken from patent publication US10933141B2, “Formulations with reduced degradation of polysorbate” (Genentech, Inc., priority 2015, dated 2021).

The series has as its target T1, porcine pancreatic lipase (PPL) (Sus scrofa, UniProt P00591).
T1 construct: purchased Sigma Aldrich Inc. (St. Louis, Mo.)
T1 sequence (P00591 1-450): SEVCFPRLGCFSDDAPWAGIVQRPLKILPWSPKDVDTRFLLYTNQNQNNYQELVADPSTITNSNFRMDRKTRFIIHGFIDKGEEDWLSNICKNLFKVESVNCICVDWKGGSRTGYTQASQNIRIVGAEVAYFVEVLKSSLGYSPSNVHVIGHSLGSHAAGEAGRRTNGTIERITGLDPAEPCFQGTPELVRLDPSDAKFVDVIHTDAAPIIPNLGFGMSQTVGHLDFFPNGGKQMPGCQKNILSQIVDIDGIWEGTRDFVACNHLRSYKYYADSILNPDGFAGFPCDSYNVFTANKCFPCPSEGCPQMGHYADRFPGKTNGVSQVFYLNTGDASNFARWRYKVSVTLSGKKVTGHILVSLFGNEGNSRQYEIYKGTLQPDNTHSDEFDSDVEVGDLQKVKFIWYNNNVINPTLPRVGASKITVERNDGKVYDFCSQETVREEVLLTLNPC
Kind of series: Enzymatic degradation of PS20 by PPL, 4.5 hour digestion, PS20 by RP-ELSD. The conditions noted are these: for decrease in PS20: 0.02% PS20, pH 5.5, 15 μg/mL PPL 4.5 hours room temperature, excipient 15% w/v (cyclodextrins 106 mM); for inhibitory effect on enzymatic PS20 degradation (in words): 0.02% PS20, 15 μg/mL PPL 4.5 hours, excipient 15% w/v (methionine 10 mg/mL). It counts as biochemical. The method, then:
Polysorbate concentration was determined using reverse phase ultra-performance liquid chromatography using evaporative light scattering detection (RP-ELSD). Samples were analyzed using an Agilent 1100 series high performance liquid chromatography system (HPLC) fitted with a Waters Oasis MAX cartridge column (20×2.1 mm, 30 μm particle size). The HPLC system was set up with a switching valve directing column flow-through to either waste or a Varian 380-LC evaporative light scattering detector set to 100° C. The mobile phases consisted of 2% formic acid in water (Pump A) and 2% formic acid in isopropanol (Pump B). The pump gradient was isocratic at 10% pump B during equilibration, linear to 20% pump B for 1 minute, isocratic at 20% pump B for 2.4 minutes, linear to 100% pump B for 0.1 minutes, isocratic at 100% pump B for 1.1 minutes, linear to 10% pump B for 0.1 minutes, and finally isocratic at 10% pump B for 1.9 minutes. The switching valve directed column flow-through to waste at the beginning of every injection, and then directed flow to the detector after 2.4 minutes until the end of the gradient. In order to quantitate the PS20 concentration, a standard curve was generated by injecting 20 μL of solutions containing between 0% w/v and 0.4% w/v PS20.
Several excipients were tested for their ability to protect PS20 against enzymatic hydrolysis including HP-α-CD, HP-β-CD, HP-γ-CD, SBE-β-CD, PVP, PEG 1500, sucrose, and methionine. Solutions of each excipient in pH 5.5 buffer were prepared containing a final concentration of 0.02% PS20 after enzyme addition. The concentration of HP-α-CD, HP-β-CD, HP-γ-CD, and SBE-β-CD in the excipient solutions was 106 mM. […] The remaining excipients (PVP, PEG 1500, sucrose) were added to 15% w/v to match the % w/v of HP-β-CD. Samples were digested with 15 μg/mL PPL enzyme for 4.5 hours at room temperature, followed by 30 minutes of heat inactivation at 85° C. Each sample was analyzed for PS20 concentration using high performance liquid chromatography with an inline evaporative light scattering detector. Samples were then placed at 5° C. overnight to allow for the formation of particles and were analyzed for visible and subvisible particles as described previously.
The effect of the HP-β-CD concentration at different PS20 concentrations on the enzymatic degradation of PS20 was assessed to identify optimal concentrations for inhibition of enzymatic PS20 degradation. To evaluate the dependence of PS20 degradation on HP-β-CD concentration, the PS20 content was determined using RP-ELSD for triplicate samples containing different HP-β-CD concentrations at various PS20 concentrations. Samples containing 0.005% (FIG. 14A), 0.02% (FIG. 14B), 0.1% (FIG. 14C), and 0.4% PS20 (FIG. 14D) were digested using 15 μg/mL of PPL enzyme for 4.5 hours at room temperature in protein-free samples containing no excipient (control), 0, 0.5, 5, and 15% (w/v) HP-β-CD. PPL was added to each of the treatment solutions at a ratio of 75 […], with an equivalent volume of buffer added to the control solutions to determine the effect of HP-β-CD to polysorbate ratio on enzymatic degradation. Digestion was stopped by heat inactivation in an 85° C. water bath for 30 minutes. Each sample was analyzed for PS20 concentration using high performance liquid chromatography with an inline evaporative light scattering detector as described above. Samples were then placed at 5° C. overnight to allow for the formation of particles and placed on ice during analysis for visible and subvisible particles as described above.

“Also recorded” adds a separate entry of the source.

With “2-hydroxypropyl-α-cyclodextrin [HP-α-CD]”, the “decrease in PS20” value was found to be 1% and the “inhibitory effect on enzymatic PS20 degradation (in words)” value (from here on “inhibitory effect”) was “significant inhibitory effects; also recorded: able to prevent enzymatic degradation of PS20”.

Regarding “2-hydroxypropyl-β-cyclodextrin [HP-β-CD]”, the “decrease in PS20” value is 7% and the “inhibitory effect” value is “significant inhibitory effects; also recorded: able to prevent enzymatic degradation of PS20”. Moreover, the “HP-β-CD concentration required to fully inhibit PS20 degradation” value (0.005% PS20, PPL 4.5 hours) was determined as 0.5%. The “HP-β-CD concentration required to fully inhibit PS20 degradation” value (0.1% PS20, PPL 4.5 hours) turned out to be 15%. Besides, the “HP-β-CD:PS20 ratio required to inhibit enzymatic PS20 degradation” value (PPL 4.5 hours, across PS20 and HP-β-CD concentrations) is recorded as at least 37.5 w/w. The “PS20 remaining (Relative %)” value ([HP-β-CD]/[PS20] wt/wt ratio 0.5 (mole ratio 0.4), PPL 4.5 hours) is 41.4 Relative %. Moreover, the “PS20 remaining (Relative %)” value ([HP-β-CD]/[PS20] wt/wt ratio 1.25 (mole ratio 1.1), PPL 4.5 hours) is on record as 41.2 Relative %. Also, where the note is “[HP-β-CD]/[PS20] wt/wt ratio 2.5 (mole ratio 2.2), PPL 4.5 hours”, the “PS20 remaining (Relative %)” value is recorded as 44.0 Relative %. For the same compound, the “PS20 remaining (Relative %)” value ([HP-β-CD]/[PS20] wt/wt ratio 5 (mole ratio 4.35), PPL 4.5 hours) amounted to 65.3 Relative %. Further, the “PS20 remaining (Relative %)” value ([HP-β-CD]/[PS20] wt/wt ratio 12.5 (mole ratio 10.9), PPL 4.5 hours) is 86.4 Relative %. In addition, under “[HP-β-CD]/[PS20] wt/wt ratio 25 (mole ratio 21.8), PPL 4.5 hours”, the “PS20 remaining (Relative %)” value came to 90.3 Relative %. Further, where the note is “[HP-β-CD]/[PS20] wt/wt ratio 37.5 (mole ratio 32.6), PPL 4.5 hours”, the “PS20 remaining (Relative %)” value was 106.7 Relative %. Besides, the “PS20 remaining (Relative %)” value ([HP-β-CD]/[PS20] wt/wt ratio 50 (mole ratio 43.5), PPL 4.5 hours) was found to be 98.6 Relative %. Also, the “PS20 remaining (Relative %)” value ([HP-β-CD]/[PS20] wt/wt ratio 100 (mole ratio 87.0), PPL 4.5 hours) stood at 93.9 Relative %. Moreover, the “PS20 remaining (Relative %)” value ([HP-β-CD]/[PS20] wt/wt ratio 150 (mole ratio 130.5), PPL 4.5 hours) came to 108.3 Relative %. Further, the “PS20 remaining (Relative %)” value ([HP-β-CD]/[PS20] wt/wt ratio 250 (mole ratio 217.6), PPL 4.5 hours) came to 101.9 Relative %. In addition, the “PS20 remaining (Relative %)” value ([HP-β-CD]/[PS20] wt/wt ratio 750 (mole ratio 652.7), PPL 4.5 hours) was 104.2 Relative %. The “PS20 remaining (Relative %)” value ([HP-β-CD]/[PS20] wt/wt ratio 1000 (mole ratio 870.2), PPL 4.5 hours) turned out to be 104.3 Relative %. Further, where the note is “[HP-β-CD]/[PS20] wt/wt ratio 3000 (mole ratio 2610.6), PPL 4.5 hours”, the “PS20 remaining (Relative %)” value is recorded as 112.4 Relative %.

Consider “2-hydroxypropyl-γ-cyclodextrin [HP-γ-CD]”, for which the “inhibitory effect” value is “able to prevent enzymatic degradation of PS20”.

With `OC[C@H]1O[C@@](CO)(O[C@H]2O[C@H](CO)[C@@H](O)[C@H](O)[C@H]2O)[C@@H](O)[C@@H]1O` [sucrose, reference compound], the “decrease in PS20” value was 58% and the “inhibitory effect” value is on record as “does not have an inhibitory effect”.
